{"source": "patent US11618744B2", "about": "“Benzoimidazoles as prolyl hydroxylase inhibitors” (Janssen Pharmaceutica NV, priority 2008, dated 2023)", "data": [{"test_system": "Hep-3B cells", "test": "Cellular assay: erythropoietin (EPO) secretion in Hep-3B cells", "format": "cell-based, human", "settings": "24 h incubation, compound at 100 μM, percentage of EPO secretion of control compound 7-[(4-Chloro-phenyl)-(5-methyl-isoxazol-3-ylamino)-methyl]-quinolin-8-ol", "units": {"Cellular % EPO Stimulation": "%"}, "values": [{"smiles": "O=C(O)c1cnn(-c2nc3ccccc3[nH]2)c1", "note": "[Example 1, 1-(1H-Benzoimidazol-2-yl)-1H-pyrazole-4-carboxylic acid]", "Cellular % EPO Stimulation": 7.1}, {"smiles": "Cc1cc2nc(-n3cc(C(=O)O)cn3)[nH]c2cc1C", "note": "[Example 5, 1-(5,6-Dimethyl-1H-benzoimidazol-2-yl)-1H-pyrazole-4-carboxylic acid]", "Cellular % EPO Stimulation": 2.1}, {"smiles": "Cc1nn(-c2nc3cc(Cl)c(Cl)cc3[nH]2)c(C)c1C(=O)O", "note": "[Example 22, 1-(5,6-Dichloro-1H-benzoimidazol-2-yl)-3,5-dimethyl-1H-pyrazole-4-carboxylic acid]", "Cellular % EPO Stimulation": 0.47}, {"smiles": "O=C(O)c1cnn(-c2nc3cc(-c4cccc(C(F)(F)F)c4)ccc3[nH]2)c1", "note": "[Example 17, 1-[5-(3-Trifluoromethyl-phenyl)-1H-benzoimidazol-2-yl]-1H-pyrazole-4-carboxylic acid]", "Cellular % EPO Stimulation": 5.8}, {"smiles": "O=C(O)c1cnn(-c2nc3cc(-c4cccc(OCc5ccccc5Cl)c4)ccc3[nH]2)c1", "note": "[Example 13, 1-{5-[3-(2-Chloro-benzyloxy)-phenyl]-1H-benzoimidazol-2-yl}-1H-pyrazole-4-carboxylic acid]", "Cellular % EPO Stimulation": 18}]}]}
